In brackets after ≈: the same amount, converted by molar mass. Where a SMILES comes first, the peptide text is derived from it. Bridges are numbered along the chain shown (N, C = ends). [ ]: non-standard residue; d: D form. The star is where a group is joined. Asp(3S-OH) = N[C@H](C(=O)O)[C@H](O)C(=O)O; Thr(4-Cl) = N[C@H](C(=O)O)[C@H](O)CCl; X1 = CCCCCCCCC[C@@H](O)CC(=O)*; dDab = NCC[C@@H](N)C(=O)O; Dab = NCC[C@H](N)C(=O)O; Dhb = C/C=C(\N)C(=O)O
Assays:
[1] = system: BFTE cells; assay: Toxic effect of Syr-E on BFTE host cells at pH 6.3 (neutral red assay, visual observation); assay type: cell-based, bovine
Description: Primary BFTE cell cultures were prepared from bovine fallopian tubes (FT). Fat was trimmed from the serosal surfaces, mucus was gently squeezed from the lumens, and FT were decontaminated by being submerged in 70% ethanol for 30 seconds. The FT were then transferred to sterile culture petri dishes containing HBSS and washed twice. The BFTE cells were harvested either by flushing the FT with HBSS, using a 10 ml syringe equipped with a mouse feeding needle, or by opening the FT lengthwise with scissors and scraping the mucosal surfaces. The BFTE cells were subsequently washed in HBSS by centrifugation at 200×g (force of gravity) for 10 minutes, planted in 75-cm^2 flasks containing RPMI 1640 and cultured in a 5% CO2 incubator at 37° C. for 72 to 120 hours. When the cell lines reached confluency, they were trypsinized, split, and planted onto cover slips positioned on the bottoms of individual wells in 24-well tissue culture plates. When cells reached 80% confluency, they were inoculated with either 10^5 oocysts or 4×10^5 sporozoites per well. Plates were then maintained at 37° C. in a candle jar environment (17% O2, 3% CO2, 80% N2). Growth medium was changed in each well every 72 hours. In wells inoculated with oocysts, the medium was first changed at 24 hours to remove any unexcysted oocysts.
Neutral red assay was used to measure viewable cell damage, such as obvious plaque forming and cell peeling. Briefly, 0.1 ml of neutral red was directly added to supernatant in each well of 96-well plates at the termination of the culture. Following 1-hr incubation at 37°C., the supernatant mixture from each well was discarded and cells at the bottom of the wells were rinsed twice with PBS. A volume of 0.2 ml/well extract buffer was added and the content in each well was well mixed prior to 30 min. incubation in the dark at 25°C. cytotoxicity was quantitatively read using a Microplate Autoreader (Bio-Tek Instruments, Inc., Winooski, Vt.) with a wavelength set at 540 nm.
Samples were collected on day 2 post inoculation. Each group consisted of both uninfected (empty bar) and C. parvum infected (solid bar) subgroups. In group 1, the medium pH was adjusted to 7.2, no Syr-E was used, and the cytotoxicity of the uninfected subgroup set to zero percent. Medium pH in groups 2-8 was adjusted to 6.3 and groups 3-8 received Syr-E treatments at 1, 2, 4, 8, 16, and 32 ,g/ml, respectively. Data are presented as the means +/- standard error of the mean. The cytotoxic effect increased from approximately 40% to 60% as Syr-E concentrations were elevated from 1 to 16 μg/ml, presenting a dose-dependent response. […] BFTE cells were 98% destroyed when Syr-E concentration reached 32 μg/ml at pH 6.3.

[2] = system: C. parvum; assay type: cell-based, C. parvum (bovine isolate); conditions: MDBK cells, day 2 post inoculation
[3] = system: P. falciparum W2; assay type: cell-based; conditions: W2 isolate, pH 7.0, 66 hour incubation
From the text: (§1) P. falciparum used in this study were two well characterized clones, W2 and D6, as described in Oduola, A. M. et al., Plasmodium falciparum: cloning by single-erythrocyte micromanipulation and heterogeneity in vitro; Exp. Parasitol. 66, 86-95 (1988), the contents of which are incorporated herein by this reference. W2 is a clone of the Indochina I isolate and is resistant to chloroquine and pyrimethamine, but susceptible to mefloquine. D6 is a clone from the Sierra I/UNC isolate and is susceptible to chloroquine and pyrimethamine, but has reduced susceptibilities to mefloquine and halofantrine.
(§2) The susceptibility of P. falciparum to Syr-E was studied using a modified antimalarial drug susceptibility screen following the procedures published by Desjardins et al., Quantitative assessment of antimalarial activity in vitro by semiautomated microdilution technique (1979), with modifications developed by Milhous et al., In vitro strategies for circumventing antimalarial drug resistance, Prog. […]
(§3) Syr-E was dissolved directly in dimethylsulfoxide (DMSO) and diluted 400 fold with complete culture media and started at a highest concentration of 50,000 ng/ml. […] The filter mats were then counted in a scintillation counter and the data downloaded with custom, automated analysis software (developed at the Walter Reed Army Institute of Research). […]

[4] = system: P. falciparum D6; assay type: cell-based; conditions: D6 isolate, pH 7.0, 66 hour incubation
From the text: as §1, §2, §3

`C/C=C1\NC(=O)[C@H](Cc2ccccc2)NC(=O)[C@H](CCCNC(=N)N)NC(=O)[C@H](CCN)NC(=O)[C@@H](CCN)NC(=O)[C@@H](CO)NC(=O)[C@@H](NC(=O)C[C@H](O)CCCCCCCCC)COC(=O)[C@H]([C@H](O)CCl)NC(=O)[C@H]([C@H](O)C(=O)O)NC1=O` [Syr-E, Syringomycin-E] (X1-S[dS][dDab][Dab]RF[Dhb][Asp(3S-OH)][Thr(4-Cl)]; ester 1-C) was tested, and the “cytotoxic effect (neutral red assay)” value ([1]; Syr-E 1 μg/ml, BFTE cells, pH 6.3, day 2 post inoculation) was “approximately 40%”, the “cytotoxic effect (neutral red assay)” value ([1]; Syr-E 16 μg/ml, BFTE cells, pH 6.3, day 2 post inoculation) was ~60% and the “BFTE cells destroyed (neutral red assay)” value ([1]; Syr-E 32 μg/ml, pH 6.3, day 2 post inoculation) was 98%. The visual cell damage ([1]; Syr-E 0.5-9.0 μg/ml, BFTE cells, pH 6.3) was “Visual cell plaques were observed”, the “infection percentage compared to the untreated control” value ([2]; Syr-E 5.0 μg/ml) was “significantly (P<0.05) reduced the infection percentage” and the “inhibition of parasite growth and development” value ([2]; Syr-E 20 μg/ml) was 99.5%. For the same molecule, the IC50 [3] was 3.23 µg/mL (≈ 2.64 µM) and the IC50 [4] was 3.03 µg/mL (≈ 2.47 µM).

From patent publication US6310037A, “Method of controlling protozoan infections using syringomycin-family lipodepsipeptides” (Utah State University, priority 1999, dated 2001)
